Assay results from patent publication US7045361B2, “Analyte sensing via acridine-based boronate biosensors” (Medtronic MiniMed, Inc., priority 2001, dated 2006).
One block for each compound: values may come before it.

Key:
[1] = Comparative analysis of the spectral properties of fluorophores; assay type: physicochemical; details: for λem(max) / λex / λem(50% max): PBS containing 0.5% DMSO at 21° C; for λem(50% max): bathochromic wavelength at 50% of maximum
Text: A comparative analysis of the spectral properties of certain fluorophores is shown Table 1. […] This phenomenon is unexpected given the chemical similarity between anthracene and an acridine. As shown in the Table 1, the acridine orange fluorophore emits at even longer wavelengths.

[2] = Emission spectra in presence and absence of glucose (FIG. 14A/14B transduction experiment)
Text: FIG. 14A depicts the results of a transduction experiment with anthracene boronate.
FIG. 14B depicts the results of a transduction experiment with methylacridine boronate (MEACRAB) in the presence of glucose.
A comparison of anthracene boronate and methylacridine boronate (MEACRAB) in the presence and absence of glucose further highlights the unexpected differences between these two fluorescent molecules in terms of their respective fluorescent properties, such as transduction of glucose at longer wavelengths, i.e., glucose sensing capacity as indicated by a change in fluorescence in the presence of glucose at longer wavelengths. These differences are illustrated in FIG. 14A and FIG. 14B, which depicts the emission spectra of anthracene boronate and methylacridine boronate, respectively in the presence and absence of glucose. From inspection of FIG. 14A, it can be observed that at about 440 nm, which is about at a peak of next to maximum intensity, anthracene boronate yields about 25% transduction in the presence of glucose. […] For instance, at about 500 nm, methylacridine boronate yields about 25% transduction in the presence of glucose. Thus, the ability of an acridine boronate, such as methylacridine boronate, to transduce in the presence of glucose at longer wavelengths, as compared with anthracene boronate, is unexpected. […]

[3] = Glucose transduction of monotopic acridine-based boronate biosensor molecules by fluorescence spectroscopy; details: for wavelength of maximum intensity (Imax): PBS with DMSO
Description: Glucose transduction of particular acridine-based boronate bio sensor molecules was observed using fluorescence spectroscopy. Fluorescence measurements were taken on a Yorbin Fluorolog instrument. […]
Aliquots of glucose were added and responses were measured at 436 nm, or maximum intensity. (See Table 3).
Another transduction experiment was performed with ACRAB at 500 nm, or approximately 25% of the value of maximum intensity. The data taken at 500 nm generally parallel those taken at 436 nm, thus indicating no decrease in performance of the acridine-based boronate biosensor molecule at the longer wavelength. This shift of 83 nm is very significant in that it provides about a 10-fold increase of transmission of light through tissue and skin.
MEACRAB was then diluted 100-fold to 100 nM and transduction at conditions of ambient temperature. The solution contained 0.5% DMSO.

Compound: CN(C)c1ccc2cc3ccc(N(C)C)cc3nc2c1 [Acridine Orange, 3,6-bis(dimethylamino)acridine]
emission profile detectable out to [1]: 575–600 nm
maximum emission [1]: 525 nm
λem(max) [1]: 526 nm
λex [1]: 493 nm
λem(50% max) [1]: 567 nm

Compound: c1ccc2nc3ccccc3cc2c1 [Acridine]
λem(max) [1]: 428 nm
λex [1]: 360 nm
λem(50% max) [1]: 480 nm
emission intensity at about 480 nm relative to intensity of maximum emission wavelength [1]: approximately 50%

Compound: aminomethylhydroxypentyl-acridine boronate [ACRAB]
intensity at 500 nm relative to the value of maximum intensity ([3]; 500 nm): approximately 25%
Transduction ([3]; 500 nm, glucose 49 mg/dL): 11%
Transduction ([3]; 500 nm, glucose 149 mg/dL): 24%
Transduction ([3]; 500 nm, glucose 198 mg/dL): 37%
Transduction ([3]; 500 nm, glucose 284 mg/dL): 47%
Transduction ([3]; 500 nm, glucose 374 mg/dL): 56%
Transduction ([3]; 500 nm, glucose 441 mg/dL): 62%
Transduction ([3]; 500 nm, glucose 559 mg/dL): 67%
wavelength of maximum intensity (Imax) [3]: 436 nm
Transduction ([3]; approx 10 μM, PBS pH 7.4, 0.5% DMSO, 436 nm, glucose 50 mg/dL): 15%
Transduction ([3]; approx 10 μM, PBS pH 7.4, 0.5% DMSO, 436 nm, glucose 150 mg/dL): 27%
Transduction ([3]; approx 10 μM, PBS pH 7.4, 0.5% DMSO, 436 nm, glucose 200 mg/dL): 41%
Transduction ([3]; approx 10 μM, PBS pH 7.4, 0.5% DMSO, 436 nm, glucose 300 mg/dL): 48%

Continued, in another order:

λem(max) [1]: 417 nm
λex [1]: 370 nm
λem(50% max) [1]: 428 nm
emission intensity at about 480 nm relative to intensity of maximum emission wavelength [1]: no detectable emission
Compound: c1ccc2cc3ccccc3cc2c1 [Anthracene]

intensity at 500 nm relative to the value of maximum intensity ([3]; 500 nm): 25%
wavelength of maximum intensity (Imax) [3]: 438 nm
Compound: Cc1ccc2nc3ccccc3c(CN(CCCCCO)Cc3ccccc3B(O)O)c2c1 [MEACRAB, aminomethylhydroxypentyl-methylacridine boronate]
transduction in the presence of glucose ([2]; at about 440 nm): about 50%
transduction in the presence of glucose ([2]; at about 500 nm): about 25%
Transduction ([3]; 100 nM, 0.5% DMSO, ambient temperature, 509 nm, glucose 87 mg/dL): 21%
Transduction ([3]; 100 nM, 0.5% DMSO, ambient temperature, 509 nm, glucose 173 mg/dL): 29%
Transduction ([3]; 100 nM, 0.5% DMSO, ambient temperature, 509 nm, glucose 256 mg/dL): 53%
Transduction ([3]; 100 nM, 0.5% DMSO, ambient temperature, 509 nm, glucose 341 mg/dL): 77%
Transduction ([3]; 100 nM, 0.5% DMSO, ambient temperature, 509 nm, glucose 425 mg/dL): 94%
Transduction ([3]; 100 nM, 0.5% DMSO, ambient temperature, 509 nm, glucose 510 mg/dL): 109%
Transduction ([3]; 100 nM, 0.5% DMSO, ambient temperature, 509 nm, glucose 603 mg/dL): 118%
Transduction ([3]; 100 nM, 0.5% DMSO, ambient temperature, 509 nm, glucose 683 mg/dL): 121%
Transduction ([3]; 100 nM, 0.5% DMSO, ambient temperature, 509 nm, glucose 767 mg/dL): 126%
Transduction ([3]; 100 nM, 0.5% DMSO, ambient temperature, 509 nm, glucose 834 mg/dL): 134%
Transduction ([3]; 100 nM, 0.5% DMSO, ambient temperature, 509 nm, glucose 927 mg/dL): 142%
Transduction ([3]; 100 nM, 0.5% DMSO, ambient temperature, 509 nm, glucose 1012 mg/dL): 158%
Transduction ([3]; 10 μM in PBS, 4% DMSO, 500 nm, glucose 93 mg/dL): 30%
Transduction ([3]; 10 μM in PBS, 4% DMSO, 500 nm, glucose 184 mg/dL): 60%
Transduction ([3]; 10 μM in PBS, 4% DMSO, 500 nm, glucose 275 mg/dL): 100%
Transduction ([3]; 10 μM in PBS, 4% DMSO, 500 nm, glucose 364 mg/dL): 120%
Transduction ([3]; 10 μM in PBS, 4% DMSO, 500 nm, glucose 459 mg/dL): 170%
Transduction ([3]; 10 μM in PBS, 4% DMSO, 500 nm, glucose 547 mg/dL): 190%
Transduction ([3]; 10 μM in PBS, 4% DMSO, 500 nm, glucose 650 mg/dL): 220%
performance at 100 nM compared with ACRAB, or MEACRAB itself, at 10 μM ([3]; emission wavelength of 500 nm, 0.5% DMSO): performed better
